Results: a compilation of properties of binary mixtures (doi:10.1051/jnwpu/20234130557)

Assay: xn = mol fraction of the nth substance listed
Settings: 298.15 K, 101.3 kPa

Compound: CCCC[n+]1cccc(C)c1.O=S(=O)([N-]S(=O)(=O)C(F)(F)F)C(F)(F)F + CC(C)O
- electrical conductivity (x2 = 0.0802): 0.334 S/m
- electrical conductivity (x2 = 0.1045): 0.41 S/m
- electrical conductivity (x2 = 0.1234): 0.462 S/m
- electrical conductivity (x2 = 0.1455): 0.511 S/m
- electrical conductivity (x2 = 0.177): 0.566 S/m
- electrical conductivity (x2 = 0.2193): 0.613 S/m
- electrical conductivity (x2 = 0.2497): 0.633 S/m
- electrical conductivity (x2 = 0.4682): 0.587 S/m
- electrical conductivity (x2 = 0.6921): 0.441 S/m
- electrical conductivity (x2 = 0.9362): 0.3 S/m

Compound: CC(C)O + CCCC[n+]1cccc(C)c1.O=S(=O)([N-]S(=O)(=O)C(F)(F)F)C(F)(F)F
- electrical conductivity (x1 = 1): 0.27 S/m

Compound: CCCC[n+]1cccc(C)c1.O=S(=O)([N-]S(=O)(=O)C(F)(F)F)C(F)(F)F + CCO
- electrical conductivity (x2 = 0.2427): 0.445 S/m
- electrical conductivity (x2 = 0.5689): 0.809 S/m
- electrical conductivity (x2 = 0.7583): 1.04 S/m
- electrical conductivity (x2 = 0.8896): 0.992 S/m
- electrical conductivity (x2 = 0.9196): 0.883 S/m
- electrical conductivity (x2 = 0.9371): 0.783 S/m

Compound: CCCC[n+]1cccc(C)c1.O=S(=O)([N-]S(=O)(=O)C(F)(F)F)C(F)(F)F + CO
- electrical conductivity (x2 = 0): 0.273 S/m
- electrical conductivity (x2 = 0.2345): 0.453 S/m
- electrical conductivity (x2 = 0.5544): 0.951 S/m
- electrical conductivity (x2 = 0.7016): 1.38 S/m
- electrical conductivity (x2 = 0.8346): 1.93 S/m
- electrical conductivity (x2 = 0.882): 2.1 S/m
- electrical conductivity (x2 = 0.9199): 2.13 S/m
